Results reported in US9259452B2, “Deacetylase inhibitor therapy” (Celgene Corporation, priority 2006, dated 2016).
Marks after values point to notes of the source that are not given here.

How the values were obtained:
[1] = ECG evaluation of T-wave (grade 1) and ST segment (grade 2) abnormalities, phase II trial of romidepsin in T-cell lymphoma patients; type: in vivo, human
Description: (§1) The protocol (NCI 01-C-0049 or 1312) and informed consent were approved by the Institutional Review Board of the National Cancer Institute. All data used in this analysis were obtained from patients who signed an informed consent and were enrolled and treated at the NIH Warren Grant Magnuson Clinical Center. Toxicities were reported using the National Cancer Institute Common Toxicity Criteria, CTC version 2.0. The Inclusion Criteria required measurable disease, an age of 18 years or older, an ECOG performance status of 0, 1 or 2, and a life expectancy of >12 wk. Required laboratory values included AGC≧1000/μL, platelets≧100,000/μL, bilirubin <1.5× the institutional upper limit of normal (ULN), AST <3×ULN, and creatinine <1.5×ULN. Patients with a myocardial infarction within the previous 6 months, a left ventricular ejection fraction (LVEF) below normal (<45% if performed by MUGA, or <50% if performed by echocardiogram or cardiac MRI), a corrected QT interval of >500 ms, unstable angina, or third degree heart block (unless with pacemaker) were not eligible to enroll.
(§2) Subsequently, the protocol was amended and all patients were treated on days 1, 8 and 15 of a 28 day cycle, with a starting dose of 14 mg/m^2. This change was made for improved patient tolerability. […] Provisions for dose reduction were made in the case of grade 3 or 4 toxicity. Alternatively, a dose increase was allowed for patients who had no serious toxicities.

[2] = Post-treatment echocardiogram, global LV function; type: in vivo, human
Experimental: Post treatment evaluation of cardiac function (LVEF): Echocardiograms to evaluate cardiac function were also performed on the day following the last dose of the cycle; day 6 for patients treated on days 1 and 5, or day 16 for patients treated on days 1, 8 and 15.
Post-treatment global LV function: To determine whether the observed ECG abnormalities were associated with acute LV wall motion abnormalities, echocardiograms were performed on the day following the last dose of the cycle (d 6 for patients treated on days 1 and 5, and day 16 for patients treated on days 1, 8, and 15).

[3] = Toxicities and cardiac events observed on the phase II trial; type: in vivo, human
Description: as §1, §2

[4] = QTc analysis (heart rate-corrected QT interval) on ECGs, phase II trial; details: for Least Square mean QT interval: all doses of first 6 cycles
[5] = among 123 ECGs, day 6 or day 16
[6] = Bazett's formula, 2051 ECGs, 42 patients
[7] = first 6 cycles, all 42 patients
[8] = re-calculated using Friderica's formula

Echocardiograms demonstrating a change from baseline (acute LV wall motion) ([2]; day following last dose of the cycle (day 6 or day 16), 145 echocardiograms, 34 patients): None
SMILES: C/C=C1\NC(=O)[C@H]2CSSCC/C=C/[C@H](CC(=O)N[C@H](C(C)C)C(=O)N2)OC(=O)[C@H](C(C)C)NC1=O [romidepsin, (1S,4S,10S,16E,21R)-7-[(2Z)-ethylidene]-4,21-diisopropyl-2-oxa-12,13-dithia-5,8,20,23-tetraazabicyclo[8.7.6]tricos-16-ene-3,6,9,19,22-pentanone]
ECGs Grade 1 ([1]; first dose of the first cycle (n = 42), Pre (baseline)): 5%
ST segment depression, grade 2 ([1]; first dose of the first cycle, day 3): not observed
Grade 2 ECGs meeting criteria consistent with ischemia (1 mm ST segment depression 80 msec after end of QRS) ([1]; of 69 ECGs scored grade 2, cardiologist review): 45%
Patients returning for the second cycle with no evidence of T-wave or ST-segment abnormalities ([1]; of the 34 patients returning for cycle 2): Twenty-eight
ECGs with ST-segment depression obtained on the same day as the echocardiogram [2, 5]: 23
ECGs with T-wave flattening obtained on the same day as the echocardiogram [2, 5]: 82
ECGs with no abnormalities obtained on the same day as the echocardiogram [2, 5]: 18
Observed toxicities ([3]; 42 patients, phase II trial): primarily nausea and fatigue
Pre-treatment and post-treatment EP studies ([3]; one patient with significant ectopy prior to initiation of protocol): no change in intracardiac conduction or inducibility of any arrhythmias
Cardiac event in a patient with QTc greater than 500 ([3]; telemetry, abnormal magnesium and potassium levels): 12 beat run of VT that was asymptomatic and did not recur
Maximal increase of QTc, median ([4]; 31 patients, first six cycles): 11.3%
Maximum increase in QTc ([4]; 31 patients, first six cycles): 78.25 ms
Doses associated with a 30 to 60 ms prolongation of QTc ([4]; 349 doses, 31 patients): 25%
Doses associated with a greater than 60 ms prolongation of QTc ([4]; 349 doses, 31 patients): 2.6%
Median change of QTc from baseline ([4]; 670 ECGs obtained immediately post-treatment or on the day following treatment): 13.42 ms
Share of ECGs with QTc over 450 ms that were obtained immediately post treatment or on the day following treatment ([4]; Bazett's formula): Eighty-nine
Number of patients with QTc greater than 450 ms ([4]; Bazett's formula, 42 patients): 28
Number of patients with QTc greater than 480 ms ([4]; Bazett's formula, 42 patients): 10
Number of patients with QTc greater than 500 ms ([4]; Bazett's formula, 42 patients): 4
Number of ECGs with QTc greater than 450 ms [4, 6]: 163
Number of ECGs with QTc greater than 480 ms [4, 6]: 20
Number of ECGs with QTc greater than 500 ms [4, 6]: 5
Share of ECGs with QTc greater than 450 ms [4, 6]: 8.0%
Share of ECGs with QTc greater than 480 ms [4, 6]: 1%
Share of ECGs with QTc greater than 500 ms [4, 6]: 0.2%
QTc Interval Difference [D2]-[4 hr], Median ([4]; C1): 0.0 ms
QTc Interval Difference [D3]-[Baseline], Median ([4]; C1): -2.5 ms
QTc Interval Difference [D3]-[D2], Median ([4]; C1): -20.0 ms
QTc Interval Difference [D2]-[Baseline], Median ([4]; C1 (cycle 1)): 10.8 ms
QTc Interval Difference [4 hr]-[Baseline], Median ([4]; C1 (cycle 1), first dose, day 1, 8, 15 schedule): 16.5 ms
QTc Interval Difference [4 hr]-[Baseline], Median ([4]; C2): 8.0 ms
QTc Interval Difference [D2]-[Baseline], Median ([4]; C2): 13.2 ms
QTc Interval Difference [4 hr]-[Baseline], Median ([4]; C3): 15.5 ms
QTc Interval Difference [D2]-[Baseline], Median ([4]; C3): 5.3 ms
QTc Interval Difference [4 hr]-[Baseline], Median ([4]; C4): 15.9 ms
QTc Interval Difference [D2]-[Baseline], Median ([4]; C4): 15.5 ms
QTc Interval Difference [4 hr]-[Baseline], Median ([4]; C5): 18.2 ms
QTc Interval Difference [D2]-[Baseline], Median ([4]; C5): 14.8 ms
QTc Interval Difference [4 hr]-[Baseline], Median ([4]; C6): 18.8 ms
QTc Interval Difference [D2]-[Baseline], Median ([4]; C6): 17.8 ms
Least Square mean QT interval ([4]; Post dose, 31 patients, p < 0.0001 vs pre-dose): 424.1*
Least Square mean QT interval ([4]; Pre-dose, 31 patients): 409.7
Maximum increase in QTc over that patient's mean baseline QTc ([4]; baseline QTc of 415.75): 19%
Least Square mean QT interval ([4]; day 1 (pre-treatment), 31 patients, repeated measures ANOVA): 410.3
Least Square mean QT interval ([4]; day 2 (day after treatment), 31 patients): 422.7
Least Square mean QT interval ([4]; day 8 (pre-treatment), 31 patients): 410.8
Least Square mean QT interval ([4]; day 9 (day after treatment), 31 patients): 426.0
Least Square mean QT interval ([4]; day 15 (pre-treatment), 31 patients): 408.0
Least Square mean QT interval ([4]; day 16 (day after treatment), 31 patients): 423.7
Doses associated with a 30 to 60 ms prolongation of QTc [4, 7]: 24%
Doses associated with a greater than 60 ms prolongation of QTc [4, 7]: 3.2%
Time after treatment by which QTc changes had reverted to baseline ([4]; first cycle): ≤ 48 h
Number of ECGs demonstrating an increased QTc from baseline ([4]; of 670 ECGs obtained immediately post-treatment or on the day following treatment, 31 patients): 514
Number of ECGs with QTc greater than 450 ms [4, 8]: 27
Number of ECGs with QTc greater than 480 ms [4, 8]: 3
Number of patients with QTc greater than 450 ms [4, 8]: 15
Number of patients with QTc greater than 480 ms [4, 8]: 3
QTc greater than 500 ms [4, 8]: no QTc was greater than 500 ms
Share of ECGs with QTc greater than 450 ms [4, 8]: 1.3%
Share of ECGs with QTc greater than 480 ms [4, 8]: 0.1%
